What was measured:
Macrophage = experiment: Antiinflammatory activity against human primary macrophages assessed as inhibition of LPS-activated TNF-alpha production incubated for 6 hrs by ELISA; format: functional, cell-based
[1] = target: T1, Lysine-specific demethylase 4C (Homo sapiens, UniProt Q9H3R0); experiment: Inhibition of epitope-tagged full length KDM4C (unknown origin) transfected in human U2OS cells using H3K9me3 peptide as substrate; format: cell-based
T1 sequence (Q9H3R0 whole entry): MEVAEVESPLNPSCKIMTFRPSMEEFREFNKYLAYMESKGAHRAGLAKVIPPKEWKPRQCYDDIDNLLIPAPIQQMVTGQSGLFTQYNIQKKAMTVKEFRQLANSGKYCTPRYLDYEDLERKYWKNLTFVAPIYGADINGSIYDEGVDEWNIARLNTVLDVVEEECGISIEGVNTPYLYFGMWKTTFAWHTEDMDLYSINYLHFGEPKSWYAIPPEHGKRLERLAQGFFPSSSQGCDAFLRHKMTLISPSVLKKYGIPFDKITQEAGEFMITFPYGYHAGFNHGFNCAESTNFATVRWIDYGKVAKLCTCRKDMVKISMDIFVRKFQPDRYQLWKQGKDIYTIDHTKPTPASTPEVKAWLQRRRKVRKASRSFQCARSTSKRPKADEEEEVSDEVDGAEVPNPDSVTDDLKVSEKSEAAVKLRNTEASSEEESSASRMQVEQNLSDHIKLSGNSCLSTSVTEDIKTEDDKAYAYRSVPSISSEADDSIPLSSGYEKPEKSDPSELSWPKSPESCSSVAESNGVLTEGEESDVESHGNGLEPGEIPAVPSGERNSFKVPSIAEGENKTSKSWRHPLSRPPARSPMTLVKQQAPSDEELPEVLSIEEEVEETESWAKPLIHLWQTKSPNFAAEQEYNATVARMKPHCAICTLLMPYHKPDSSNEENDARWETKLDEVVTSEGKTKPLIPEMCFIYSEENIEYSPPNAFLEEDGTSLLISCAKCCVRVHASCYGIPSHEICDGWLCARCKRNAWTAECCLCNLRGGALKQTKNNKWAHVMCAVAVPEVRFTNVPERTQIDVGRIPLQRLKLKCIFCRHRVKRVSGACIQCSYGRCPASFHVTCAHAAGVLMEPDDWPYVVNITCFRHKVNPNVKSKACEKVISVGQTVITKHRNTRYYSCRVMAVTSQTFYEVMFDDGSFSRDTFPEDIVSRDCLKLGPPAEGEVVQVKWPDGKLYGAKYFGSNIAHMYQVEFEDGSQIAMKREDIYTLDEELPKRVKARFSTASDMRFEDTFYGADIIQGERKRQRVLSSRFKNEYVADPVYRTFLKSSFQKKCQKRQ

[2] = target: T2, Lysine-specific demethylase 3A (Homo sapiens, UniProt Q9Y4C1); experiment: Inhibition of KDM3A (2 to 1322 residues)(unknown origin) by Alphalisa assay
T2 sequence (Q9Y4C1 whole entry): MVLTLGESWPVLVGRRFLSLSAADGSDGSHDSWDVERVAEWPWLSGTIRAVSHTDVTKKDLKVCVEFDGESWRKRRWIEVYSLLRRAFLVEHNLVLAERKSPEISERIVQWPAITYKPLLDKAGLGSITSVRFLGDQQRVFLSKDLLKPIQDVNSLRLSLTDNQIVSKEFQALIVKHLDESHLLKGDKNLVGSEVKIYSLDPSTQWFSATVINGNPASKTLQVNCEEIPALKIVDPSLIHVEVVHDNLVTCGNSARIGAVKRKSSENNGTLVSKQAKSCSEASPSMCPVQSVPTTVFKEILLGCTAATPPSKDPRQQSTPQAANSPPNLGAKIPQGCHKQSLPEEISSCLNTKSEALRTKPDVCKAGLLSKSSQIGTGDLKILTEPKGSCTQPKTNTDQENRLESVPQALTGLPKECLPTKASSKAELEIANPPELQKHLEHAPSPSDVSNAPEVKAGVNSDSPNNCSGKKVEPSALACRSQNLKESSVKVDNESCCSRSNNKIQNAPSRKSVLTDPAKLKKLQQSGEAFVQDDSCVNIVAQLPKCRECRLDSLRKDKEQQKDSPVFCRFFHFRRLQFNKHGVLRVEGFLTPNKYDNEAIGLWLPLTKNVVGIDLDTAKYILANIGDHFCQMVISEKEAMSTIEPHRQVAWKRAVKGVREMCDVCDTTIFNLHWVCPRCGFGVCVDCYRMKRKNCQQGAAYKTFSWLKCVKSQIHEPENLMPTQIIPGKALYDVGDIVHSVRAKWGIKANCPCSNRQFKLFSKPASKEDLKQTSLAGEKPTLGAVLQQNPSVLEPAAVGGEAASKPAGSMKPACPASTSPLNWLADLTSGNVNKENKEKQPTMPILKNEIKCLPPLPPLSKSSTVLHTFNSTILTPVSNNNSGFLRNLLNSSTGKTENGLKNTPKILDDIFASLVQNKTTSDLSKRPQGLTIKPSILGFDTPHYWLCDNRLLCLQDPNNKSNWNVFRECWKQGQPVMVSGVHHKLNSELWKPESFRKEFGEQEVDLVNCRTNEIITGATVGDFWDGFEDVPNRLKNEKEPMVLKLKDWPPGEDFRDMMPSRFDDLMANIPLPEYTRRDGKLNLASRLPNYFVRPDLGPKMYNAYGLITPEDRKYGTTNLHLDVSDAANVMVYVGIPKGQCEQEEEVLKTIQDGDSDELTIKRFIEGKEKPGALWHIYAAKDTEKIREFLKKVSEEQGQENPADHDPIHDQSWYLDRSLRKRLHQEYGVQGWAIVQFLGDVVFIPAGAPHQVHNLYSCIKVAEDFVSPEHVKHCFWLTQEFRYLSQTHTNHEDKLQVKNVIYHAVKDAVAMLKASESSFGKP

[3] = target: Lysine-specific demethylase 5A (Homo sapiens, UniProt P29375); experiment: Inhibition of KDM5A (1 to 1090 residues)(unknown origin) by Alphalisa assay
Sequence of Lysine-specific demethylase 5A (P29375 whole entry, the tested form may be a part): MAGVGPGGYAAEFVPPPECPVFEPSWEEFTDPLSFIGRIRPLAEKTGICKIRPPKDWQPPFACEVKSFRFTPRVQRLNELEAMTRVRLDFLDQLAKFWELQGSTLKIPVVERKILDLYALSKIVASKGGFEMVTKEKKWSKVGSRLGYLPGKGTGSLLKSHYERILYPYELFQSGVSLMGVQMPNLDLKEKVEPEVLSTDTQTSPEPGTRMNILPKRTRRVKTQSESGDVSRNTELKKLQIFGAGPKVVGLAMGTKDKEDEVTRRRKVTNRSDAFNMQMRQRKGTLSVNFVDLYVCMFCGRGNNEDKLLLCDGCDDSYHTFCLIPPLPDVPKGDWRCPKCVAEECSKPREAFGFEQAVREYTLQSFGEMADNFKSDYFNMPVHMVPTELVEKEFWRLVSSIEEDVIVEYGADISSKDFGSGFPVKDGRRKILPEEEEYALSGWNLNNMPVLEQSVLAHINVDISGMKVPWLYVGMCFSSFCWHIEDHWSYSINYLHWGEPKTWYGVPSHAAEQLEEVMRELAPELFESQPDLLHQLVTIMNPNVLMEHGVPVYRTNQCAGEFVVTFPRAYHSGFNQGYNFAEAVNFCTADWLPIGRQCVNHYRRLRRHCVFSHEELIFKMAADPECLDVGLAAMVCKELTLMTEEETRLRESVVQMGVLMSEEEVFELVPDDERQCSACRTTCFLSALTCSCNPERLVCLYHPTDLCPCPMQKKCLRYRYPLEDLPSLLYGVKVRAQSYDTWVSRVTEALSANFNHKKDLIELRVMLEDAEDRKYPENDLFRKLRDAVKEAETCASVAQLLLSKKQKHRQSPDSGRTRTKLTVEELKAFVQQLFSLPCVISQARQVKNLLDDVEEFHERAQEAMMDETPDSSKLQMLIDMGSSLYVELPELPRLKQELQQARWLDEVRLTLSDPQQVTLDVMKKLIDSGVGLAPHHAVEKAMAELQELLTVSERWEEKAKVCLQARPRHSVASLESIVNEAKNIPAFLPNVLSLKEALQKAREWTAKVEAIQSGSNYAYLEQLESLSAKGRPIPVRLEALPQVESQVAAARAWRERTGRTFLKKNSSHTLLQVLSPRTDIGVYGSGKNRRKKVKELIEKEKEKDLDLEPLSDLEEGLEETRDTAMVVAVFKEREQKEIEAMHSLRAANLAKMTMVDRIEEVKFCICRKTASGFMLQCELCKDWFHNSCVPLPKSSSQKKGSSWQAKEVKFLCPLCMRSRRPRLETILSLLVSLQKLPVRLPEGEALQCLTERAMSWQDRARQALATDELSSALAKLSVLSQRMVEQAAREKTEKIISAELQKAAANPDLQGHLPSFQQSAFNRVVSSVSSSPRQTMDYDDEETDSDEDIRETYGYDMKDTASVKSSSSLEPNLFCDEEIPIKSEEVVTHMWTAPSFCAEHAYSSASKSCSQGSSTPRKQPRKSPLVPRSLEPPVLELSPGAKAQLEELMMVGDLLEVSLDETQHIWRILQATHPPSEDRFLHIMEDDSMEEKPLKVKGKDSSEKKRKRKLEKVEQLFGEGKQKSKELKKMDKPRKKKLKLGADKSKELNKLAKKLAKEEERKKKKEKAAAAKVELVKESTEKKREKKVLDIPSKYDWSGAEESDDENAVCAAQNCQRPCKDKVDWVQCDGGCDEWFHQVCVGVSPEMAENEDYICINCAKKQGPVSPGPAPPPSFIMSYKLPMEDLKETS

IC50 (Macrophage)	IC50 [1]	IC50 [2]	IC50 [3]	SMILES
9 µM	7.3 µM	8.5 µM	–	CCOC(=O)CCNc1cc(N2CCc3ccccc3CC2)nc(-c2ccccn2)n1
–	–	–	6.8 µM	O=C(O)CCNc1cc(N2CCc3ccccc3CC2)nc(-c2ccccn2)n1

Reference: ChEMBL document CHEMBL5647690, “Inhibition of demethylases by GSK-J1/J4” (Nature, 2014)
